The test system of the assay is cyclin-B1, CDC25C, and CDCl2. The assay can be described thus: Cell-cycle regulatory protein immunoblot. The class given is cell-based, Human. The conditions noted are these: MM.1S 200 nM; ANBL6.BR 1 μM; 16 hours. Here is the method:
FIGS. 22A to 22F show the mechanisms of WL40-induced MM cell death. […] MM.1S cells were treated with DMSO control or WL40 (200 nM) for 16 hours, and then analyzed for apoptosis using Annexin V/PI double staining assay (mean±SD; n=3; p<0.001). FIG. 22B is an immunoblot of MM.1S and ANBL6.BR cells, which were treated with DMSO control or WL40 (200 nM for MM.1S; 1 μM for ANBL6.BR) for 16 hours; protein lysates were then subjected to the immunoblotting using antibodies against poly ADP ribose polymerase (PARP), caspase-3, caspase-7, caspase-8, caspase-9, or β-actin. FL, full length; CF, cleaved fragment. FIG. 22C is a bar graph measuring enzymatic activity. MM.1S cells were treated with DMSO control or WL40 (200 nM) for 12 hours, followed by the measurement of caspase-3, caspase-8, or caspase-9 enzymatic activity (mean±SD; n=3; p<0.0001). FIG. 22D is an immunoblot of MM.1S and ANBL6.BR cells, which were treated with DMSO control or WL40 (200 nM for MM.1S; 1 μM for ANBL6.BR) for 16 hours; protein lysates were then subjected to the immunoblotting using specific antibodies against Cyclin-B1, Cell Division Cycle 25C (CDC25C), Cell Division Cycle 2 (CDCl2), or β-actin. […]
(In general: In western blotting, separated proteins are transferred to a membrane and probed.)

Regarding `O=C1CCC(N2C(=O)c3cccc(NCCOCCOCCOCCC(=O)N[C@@H](Cc4ccccc4)C(=O)N4C/C(=C\c5ccc(Cl)c(Cl)c5)C(=O)/C(=C/c5ccc(Cl)c(Cl)c5)C4)c3C2=O)C(=O)N1` (stereo partly shown) [WL40], the “levels of cell-cycle regulatory proteins” value is reported as “reduction in the levels of cell-cycle regulatory proteins”.

Values taken from patent US11702402B2, “Small molecules that block proteasome-associated ubiquitin receptor RPN13 function and uses thereof” (DANA-FARBER CANCER INSTITUTE, INC., priority 2018, dated 2023).
